Measured values published in patent US11684606B2, “Methods of treating generalized pustular psoriasis with an antagonist of CCR6 or CXCR2” (CHEMOCENTRYX, INC., priority 2018, dated 2023).

Legend:
[1] = tested on: IL-36α-injected ears of Balb/c mice; assay: Mouse model of IL-36-induced ear thickening (GPP model); type: in vivo; conditions: intradermal IL36 mouse model (Example 1)
Procedure: (§1) For in vivo dosing, mice were dosed subcutaneously with Compound 1.136 once daily (s.c. q.d. in 1% HPMC) at 90 mg/kg unless stated otherwise, starting at day 0 of a study. The in vivo dose was predicted based on in vitro potency and the pharmacokinetic response to a single dose in mice. The minimum antagonist concentration (at trough) to fully cover a gradient-sensing chemoattractant receptor has been determined to correspond with the IC90 concentration (Schall, T. J., and A. E. Proudfoot. 2011. Overcoming hurdles in developing successful drugs targeting chemokine receptors. Nat Rev Immunol 11: 355-363).
Mouse model of IL-36-induced ear thickening. The right ear of 8-week old Balb/c mice received intradermal injections of recombinant murine IL-36α (150 μg per mouse formulated in PBS; BioLegend) every day for 5 days. Intradermal injections of PBS were given to the left ear as a control. Ear thickness was measured prior to start of study and each day thoughout the study using a digital micrometer. The imiquimod model of psoriasiform dermatitis was performed as previously described (Campbell Jet al. J Immunol. 2017; 199(9):3129-36. van der Fits et al. J Immunol 2009; 182(9):5836-45). Briefly, 5% Imiquimod (Fougera®) was applied daily to the shaved and depilated backs of Balb/c mice for up to 4 days. Control mice were treated with an application of Vaseline. Erythema, desquamation, and skin thickening were scored independently on a scale from 0 to 4 where 0=no disease; 1=slight disease; 2=moderate disease; 3=marked disease; 4=very marked disease (Campbell J et al. J Immunol. 2017; 199(9):3129-36. van der Fits et al. J Immunol 2009; 182(9):5836-45). Skin from the backs of mice was excised at the end of the study and processed for flow cytometry analysis,
Mouse anti-IL-17RA. (R&D Systems) was dosed as a positive control at 200-500 μg per mouse, i.p., q.d.

[2] = tested on: CD4 T cells, neutrophils and inflammatory dendritic cells within IL-36-treated skin; assay: Flow cytometry of leukocytes accumulating in IL-36-treated skin; type: in vivo, mouse; conditions: intradermal IL36 mouse model (Example 1)
Procedure: as §1
Flow cytometry of leukocytes. Ears or excised skin samples were digested in collagenase A and 1 U/ml DNAse I with agitation for 30 min at 37° C. Cells were then dislodged from skin, filtered through a […] sieve, washed and re-suspended in FACS buffer (PBS with 10% FBS) for analysis.
Directly conjugated Monoclonal antibodies were from R&D Systems (Minneapolis, Minn.), BioLegend (San Diego, Calif.), or eBioscience/ThermoFisher (San Diego, Calif.). CD45.2 (104) in AlexaFluor488, Ly6C (HK1.4) in PE, CD90.2 (30-H12) in Per CP-Cy5.5, TCRVγ4 (UC3-10A6) in PE-Cy7, TCRβ (H57-597) in APC, CD4 (GK1.5) in APC-eFluor-780, TCRγδ (GL3) in BV-421, LIVE/DEAD fixable Aqua stain (Molecular Probes, Eugene, Oreg.), CD11c (N418) in BV650, Ly6G (1A4) in BV711 and CD11b (M1/70) in BV785. Flow cytometry data were acquired with a Fortessa (BD Biosciences) cytometer and analyzed using FlowJo v10.2

[3] = tested on: imiquimod-treated skin of Balb/c mice; conditions: reported in a previous study; cited from earlier work

## CC(C)(C)[C@@H](Nc1c(Nc2ccc(Cl)c3c2C(=O)NC3)c(=O)c1=O)c1ccc(Cl)o1 [Compound 1.129]
[1]
  IL36-induced inflammation: reduces IL36-induced inflammation
[2]
  Accumulation of CD4+αβ T cell population in IL36-inflamed skin: preventing accumulation
[3]
  Inflammation in topical imiquimod-induced model of plaque psoriasis: ameliorates inflammation
